{"source": "patent US10369166B2", "about": "(priority 2014, dated 2019)", "key": {"[1]": {"conditions": "in vivo; cited from earlier work"}, "TNF ALPHA": {"target": "TNF ALPHA (Homo sapiens, UniProt P01375)", "sequence (P01375 whole entry, species assumed)": "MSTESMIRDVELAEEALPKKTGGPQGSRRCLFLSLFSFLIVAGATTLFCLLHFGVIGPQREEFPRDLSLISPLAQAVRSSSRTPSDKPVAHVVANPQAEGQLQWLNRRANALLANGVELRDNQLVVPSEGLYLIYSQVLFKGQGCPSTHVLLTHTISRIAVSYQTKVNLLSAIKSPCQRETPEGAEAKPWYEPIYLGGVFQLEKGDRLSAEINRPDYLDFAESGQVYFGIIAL", "conditions": "cited from earlier work"}, "Ebola virus": {"test_system": "Ebola virus", "conditions": "in vivo"}, "S-ADENOSYL HO[…] (SAHH)": {"target": "S-ADENOSYL HO[…] (SAHH) (Homo sapiens, UniProt P23526)", "sequence (P23526 whole entry, species assumed)": "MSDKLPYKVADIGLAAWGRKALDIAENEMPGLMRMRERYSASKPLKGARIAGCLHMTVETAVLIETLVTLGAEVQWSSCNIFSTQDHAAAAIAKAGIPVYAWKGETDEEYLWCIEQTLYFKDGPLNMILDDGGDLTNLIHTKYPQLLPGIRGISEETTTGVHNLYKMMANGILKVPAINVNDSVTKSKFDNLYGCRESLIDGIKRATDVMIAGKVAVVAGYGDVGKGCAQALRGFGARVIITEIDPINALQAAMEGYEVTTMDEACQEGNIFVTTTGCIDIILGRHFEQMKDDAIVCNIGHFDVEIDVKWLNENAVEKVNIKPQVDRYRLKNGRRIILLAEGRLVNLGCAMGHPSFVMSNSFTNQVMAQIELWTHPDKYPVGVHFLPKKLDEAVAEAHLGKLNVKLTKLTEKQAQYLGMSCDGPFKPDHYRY", "conditions": "cited from earlier work"}, "GLP": {"target": "T1, GLP (Homo sapiens, UniProt Q9H9B1)", "T1 sequence (Q9H9B1 1-1298)": "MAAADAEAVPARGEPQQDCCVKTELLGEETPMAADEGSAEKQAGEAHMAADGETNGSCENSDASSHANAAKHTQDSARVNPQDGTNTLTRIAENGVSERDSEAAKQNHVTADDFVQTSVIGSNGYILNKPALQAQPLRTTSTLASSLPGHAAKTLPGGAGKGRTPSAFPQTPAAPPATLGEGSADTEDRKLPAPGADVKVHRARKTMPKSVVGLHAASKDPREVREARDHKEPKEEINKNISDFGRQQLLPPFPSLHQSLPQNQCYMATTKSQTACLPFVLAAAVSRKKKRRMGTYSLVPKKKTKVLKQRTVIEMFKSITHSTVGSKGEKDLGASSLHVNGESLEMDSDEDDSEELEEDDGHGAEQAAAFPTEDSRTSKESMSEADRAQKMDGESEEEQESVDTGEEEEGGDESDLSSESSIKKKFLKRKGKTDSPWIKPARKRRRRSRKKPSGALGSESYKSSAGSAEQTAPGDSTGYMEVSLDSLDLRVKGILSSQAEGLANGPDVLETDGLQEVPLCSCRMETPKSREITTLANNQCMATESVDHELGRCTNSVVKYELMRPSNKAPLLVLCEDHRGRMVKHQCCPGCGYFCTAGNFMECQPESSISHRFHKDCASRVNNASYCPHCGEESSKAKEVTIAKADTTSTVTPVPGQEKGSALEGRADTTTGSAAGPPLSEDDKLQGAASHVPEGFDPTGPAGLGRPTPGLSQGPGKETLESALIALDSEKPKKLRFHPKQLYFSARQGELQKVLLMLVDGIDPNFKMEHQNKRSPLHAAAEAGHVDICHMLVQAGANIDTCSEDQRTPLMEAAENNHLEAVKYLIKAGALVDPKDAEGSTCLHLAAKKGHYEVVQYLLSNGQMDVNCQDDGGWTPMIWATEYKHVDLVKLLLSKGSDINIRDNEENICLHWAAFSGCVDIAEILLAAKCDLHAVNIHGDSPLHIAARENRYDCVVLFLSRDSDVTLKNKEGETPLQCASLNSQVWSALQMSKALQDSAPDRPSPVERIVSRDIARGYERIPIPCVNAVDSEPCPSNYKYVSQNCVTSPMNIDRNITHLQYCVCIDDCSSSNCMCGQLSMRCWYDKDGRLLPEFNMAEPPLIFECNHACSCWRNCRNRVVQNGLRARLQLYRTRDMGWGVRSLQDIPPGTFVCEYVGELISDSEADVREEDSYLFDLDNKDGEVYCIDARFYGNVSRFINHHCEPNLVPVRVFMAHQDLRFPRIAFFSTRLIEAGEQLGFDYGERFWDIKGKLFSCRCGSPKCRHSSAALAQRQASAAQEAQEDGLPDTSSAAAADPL", "conditions": "cited from earlier work"}, "MCF7 cells": {"test_system": "MCF7 cells", "conditions": "cited from earlier work"}, "Ebolavirus Sudan Gulu": {"test_system": "Ebolavirus Sudan Gulu", "format": "cell-based"}, "folate": {"test_system": "folate", "conditions": "cited from earlier work"}, "(CAT B) CATHEPSIN B [2]": {"target": "T2, (CAT B) CATHEPSIN B (Homo sapiens, UniProt P07858)", "conditions": "cited from earlier work"}, "(CAT B) CATHEPSIN B [3]": {"target": "T2, (CAT B) CATHEPSIN B", "format": "biochemical"}, "[4]": {"conditions": "in vivo"}, "[5]": {"conditions": "mouse, in vivo; cited from earlier work"}, "[6]": {"test_system": "G9a/GLP-mediated dimethylation of histone 3 on lysine 9", "conditions": "cited from earlier work"}, "[7]": {"conditions": "in vivo, cited from earlier work"}, "COLLAGEN": {"test_system": "COLLAGEN", "conditions": "cited from earlier work"}}, "note": "Where “and” joins values, the source holds several entries; their conditions need not be identical. Equal values may be shown once. Read-outs that look alike come from different tables or passages of the source."}
{"molecule": "O=C1O[C@H]([C@@H](O)CO)C(O)=C1O", "note": "[VITAMIN C]", "values": [{"measurement": "LD50", "setting": "[1]", "value": "11,900 mg/kg"}, {"measurement": "ED50", "setting": "TNF ALPHA", "value": "29 to 60", "unit": "mg/kg"}, {"measurement": "residual viral load after the product (sequential)", "setting": "Ebola virus", "value": 50000, "unit": "pfu/ml"}]}
{"molecule": "OC[C@H]1O[C@@H](n2cnc3c(O)ncnc32)[C@H](O)[C@@H]1O", "note": "[INOSINE]", "values": [{"measurement": "ED50", "setting": "S-ADENOSYL HO[…] (SAHH)", "value": "29 to 60", "unit": "mg/kg"}]}
{"molecule": "NC(CCSCCCCC(=O)O)C(=O)O", "note": "(stereo not drawn) [s-carboxybutyl DL homocysteine]", "values": [{"measurement": "LD50", "setting": "[1]", "value": 500, "unit": "mg/kg"}]}
{"molecule": "O=c1c(O)c(-c2ccc(O)cc2)oc2cc(O)cc(O)c12", "note": "[Kaemferol]", "values": [{"measurement": "LD50", "setting": "[1]", "value": 2170, "unit": "mg/kg"}]}
{"molecule": "COc1cc2c(NC3CCN(C4CCCCC4)CC3)nc(N3CCCN(C(C)C)CC3)nc2cc1OCCCN1CCCCC1", "note": "[UNC0646]", "values": [{"measurement": "IC50", "setting": "GLP", "value": 15, "unit": "nM"}, {"measurement": "EC50", "setting": "MCF7 cells", "value": 4.7, "unit": "µM"}]}
{"molecule": "NC(=O)c1ncn([C@@H]2O[C@H](CO)[C@@H](O)[C@H]2O)n1", "note": "[ribovirin]", "values": [{"measurement": "Molarity at last dilution", "setting": "Ebolavirus Sudan Gulu", "value": 25, "unit": "µM"}]}
{"molecule": "epigallocatechin-3 gallate [EGCG]", "values": [{"measurement": "IC50", "setting": "folate", "value": 34.8, "unit": "µM"}, {"measurement": "residual viral load after the product (sequential)", "setting": "Ebola virus", "value": 106, "unit": "pfu/ml"}]}
{"molecule": "COc1ccc2cc3[n+](cc2c1OC)CCc1cc2c(cc1-3)OCO2", "note": "[BERBERINE]", "values": [{"measurement": "IC50", "setting": "(CAT B) CATHEPSIN B [2]", "value": 550, "unit": "µM"}, {"measurement": "ED50", "setting": "(CAT B) CATHEPSIN B [3]", "value": 0.185, "unit": "g/day"}, {"measurement": "LD50", "setting": "[4]", "value": 2072, "unit": "g"}, {"measurement": "residual viral load after the product (sequential)", "setting": "Ebola virus", "value": 235, "unit": "pfu/ml"}, {"measurement": "Oral LD50", "setting": "[5]", "value": "(mouse): >29,586 mg/kg"}]}
{"molecule": "COc1cc2c(NC3CCN(CC4CCCCC4)CC3)nc(N3CCCN(C(C)C)CC3)nc2cc1OCCCN1CCCCC1", "note": "[UNC0631]", "values": [{"measurement": "LD50", "setting": "[1]", "value": 2, "unit": "mg/kg"}, {"measurement": "IC50", "setting": "[6]", "value": 4, "unit": "nM"}]}
{"molecule": "Nc1ncnc2c1ncn2[C@@H]1O[C@H](COP(=O)(O)O)[C@@H](O)[C@H]1O", "note": "[ADENOSINE MONOPHOSPHATE]", "values": [{"measurement": "LD50", "setting": "[1]", "value": 2900, "unit": "mg/kg"}]}
{"molecule": "O=c1c(O)c(-c2ccc(O)c(O)c2)oc2cc(O)cc(O)c12", "note": "[QUERCETIN]", "values": [{"measurement": "IC50", "setting": "(CAT B) CATHEPSIN B [2]", "value": 11, "unit": "µM"}, {"measurement": "ED50", "setting": "(CAT B) CATHEPSIN B [3]", "value": 0.03, "unit": "g"}, {"measurement": "LD50", "setting": "[4]", "value": 11.27, "unit": "g"}, {"measurement": "Oral LD50", "setting": "[7]; rat, po", "value": "(rat): 161 mg/kg"}, {"measurement": "residual viral load after the product (sequential)", "setting": "Ebola virus", "value": 469, "unit": "pfu/ml"}]}
{"molecule": "NCCC[C@H](N)C(=O)O", "note": "[Ornithine]", "values": [{"measurement": "ED50", "setting": "COLLAGEN", "value": 3.5, "unit": "g"}]}
{"molecule": "CCCCN1C[C@H](O)[C@@H](O)[C@H](O)[C@H]1CO", "note": "[N-B-DEOXYNOJIRIMYCIN]", "values": [{"measurement": "ED50", "setting": "α-glucosidase", "value": 32.85, "unit": "mg"}, {"measurement": "LD50", "setting": "[7]; rat, po", "value": "LD50 1,300 mg mg kg-1"}, {"measurement": "Residual estimated viral load", "setting": "Ebola virus", "value": "10^7 pfu/ml"}]}
{"molecule": "CC(C)N(CCCNC(=O)Nc1ccc(C(C)(C)C)cc1)C[C@H]1O[C@@H](n2ccc3c(N)ncnc32)[C@H](O)[C@@H]1O", "note": "[EPZ004777]", "values": [{"measurement": "Rat LD50", "setting": "[7]", "value": 590, "unit": "mg/kg"}]}
{"molecule": "Nc1nccc2c1ncn2[C@@H]1C=C(CO)[C@@H](O)[C@H]1O", "note": "[3-DEAZANEPLANOCIN A]", "values": [{"measurement": "Residual estimated viral load", "setting": "Ebola virus", "value": "10^5 pfu/ml and 10^7 pfu/ml and 10^8 pfu/ml"}]}
{"molecule": "C[C@H]1[C@H](C)CC[C@]2(C(=O)O)CC[C@]3(C)C(=CC[C@@H]4[C@@]5(C)CC[C@H](O)C(C)(C)[C@@H]5CC[C@]43C)[C@H]12", "note": "[BETA-URSOLIC ACID]", "values": [{"measurement": "IC50", "setting": "(CAT B) CATHEPSIN B [2]", "value": 10, "unit": "µM"}, {"measurement": "residual viral load after the product (sequential)", "setting": "Ebola virus", "value": 12500, "unit": "pfu/ml"}]}
{"molecule": "CC1(C)CC[C@]2(C(=O)O)CC[C@]3(C)C(=CC[C@@H]4[C@@]5(C)CC[C@H](O)C(C)(C)[C@@H]5CC[C@]43C)[C@@H]2C1", "note": "[BETA-OLEANOLIC ACID]", "values": [{"measurement": "IC50", "setting": "(CAT B) CATHEPSIN B [2]", "value": 9, "unit": "µM"}, {"measurement": "ED50", "setting": "(CAT B) CATHEPSIN B [3]", "value": 0.004, "unit": "g"}, {"measurement": "residual viral load after the product (sequential)", "setting": "Ebola virus", "value": 1875, "unit": "pfu/ml"}]}
{"molecule": "[O]=[V]([O-])([O-])[O-]", "note": "[VANADATE]", "values": [{"measurement": "residual viral load after the product (sequential)", "setting": "Ebola virus", "value": 212, "unit": "pfu/ml"}]}
{"molecule": "CC(C)N(CCCNC(=O)Nc1ccc(C(C)(C)C)cc1)C[C@H]1O[C@@H](n2cc(Br)c3c(N)ncnc32)[C@H](O)[C@@H]1O", "note": "[SGC 0946]", "values": [{"measurement": "LD50", "setting": "[4]", "value": 41.3, "unit": "g"}, {"measurement": "Rat LD50", "setting": "[7]", "value": 590, "unit": "mg/kg"}]}
{"molecule": "COc1cc(/C=C/C(=O)CC(=O)/C=C/c2ccc(O)c(OC)c2)ccc1O", "note": "[CURCUMIN]", "values": [{"measurement": "ED50", "setting": "TNF ALPHA", "value": "29 to 60", "unit": "mg/kg"}, {"measurement": "residual viral load after the product (sequential)", "setting": "Ebola virus", "value": 25000, "unit": "pfu/ml"}]}
{"molecule": "CC(C)N(C[C@H]1O[C@@H](n2cnc3c(N)ncnc32)[C@H](O)[C@@H]1O)C1CC(CCc2nc3ccc(C(C)(C)C)cc3[nH]2)C1", "note": "(stereo partly drawn) [EPZ-5676]", "values": [{"measurement": "Molarity at last dilution", "setting": "Ebolavirus Sudan Gulu", "value": 0.4, "unit": "µM"}]}
{"molecule": "N=C(N)NCCC[C@H](N)C(=O)O", "note": "[Arginine]", "values": [{"measurement": "ED50", "setting": "COLLAGEN", "value": 2.5, "unit": "g"}]}
{"molecule": "N[C@@H](CCS)C(=O)O", "note": "[HOMOCYSTEINE]", "values": [{"measurement": "ED50", "setting": "E[…]", "value": 0.4725, "unit": "g"}]}
{"molecule": "COc1c(C)c2c(c(O)c1C/C=C(\\C)CCC(=O)O)C(=O)OC2", "note": "[Mycophenolic acid]", "values": [{"measurement": "Residual estimated viral load", "setting": "Ebola virus", "value": "2 × 10^6 pfu/ml"}]}
{"molecule": "Nc1nccc2c1ncn2[C@@H]1O[C@H](CO)[C@@H](O)[C@H]1O", "note": "[CA-C3-ADO, 3-deaza-adenosine]", "values": [{"measurement": "Molarity at last dilution", "setting": "Ebolavirus Sudan Gulu", "value": 200, "unit": "µM"}]}
